Experimental data reported in patent US6242478A, “Five member ring sulfenate esters and thiosulfinate esters” (Wake Forest University, priority 1999, dated 2001).
Where two headings read alike, the source gives them in different places.

Key:
CEM-SS cells [1] = experiment: XTT assay, toxicity (IC50) in CEM-SS cells; assay type: cell-based; conditions: for IC50: Homo sapiens, CEM-SS, Table 3, read-out: XTT Anti-HIV-1 Assay IC50
From the text: (§1) Both the XTT and monocyte/macrophage assays were used because infection of monocyte/macrophage cultures is thought to resemble infection of the nonproliferating pool of cells in vivo, while the parameters for the CEM-SS cells (XTT assay) are thought to reflect more closely the parameters for highly proliferating cells such as bone marrow and intestinal cells. The CEM-SS cell (XTT) assay is a more sensitive indicator of toxicity and all compounds disclosed herein have been screened in this assay.

NCp7 [2] = biological target: T1, NCp7 (Human immunodeficiency virus type 1 group M subtype B, UniProt P12493); experiment: NCp7 Trp37 fluorescence decrease assay; assay type: biochemical, HIV-1; conditions: for NCp7 Trp37 Assay, % Decrease RFU/30 min, without GSH: 50 μM
T1 construct: HIV-1 nucleocapsid protein (NCp7)

HIV-1RF [3] = experiment: XTT cytoprotection assay, anti-HIV-1 activity (EC50) in CEM-SS cells; assay type: cell-based
From the text: as §1
Based on these preliminary screens, it is contemplated that an aromatic or large substituent at R1 (compare entries 1 & 4, 9 & 10) and a small substituent at R2 (compare entries 1, 2, & 3; 7, 8, & 9) may be best for anti-HIV-1 activity. Sulfur heterocycles containing more than 6 atoms don't appear to be active (entries 13 & 14). […] As observed for 8 previously (Rice et al., 1997), anti-HIV-1 activity and toxicity of 53a went down when treated with 2 equivalents of GSH (entry 6).

[4] = system: GST alpha mRNA in BNL.CL2 cells; experiment: GST alpha mRNA induction, Northern blot; assay type: cell-based, mouse; conditions: for GST α induction (mRNA): 80 μM, Northern blot
Description: (§2) BNL.CL2 cells were treated with Oltipraz, compound 121 described above, and compound 123 described above. All compounds were applied to the cells at 100 micromolar concentration for 24 hours.
(§3) Cells were exposed to compounds at a final concentration of 80 μM for 24 hours. RNA was isolated and analyzed by Northern blotting for the expression of the indicated genes. Control cells were incubated with vehicle alone (0.4% DMSO).
(§4) Northern blot: Treatment of BNL.CL2 cells with 100 μM Oltipraz, ALH-556, and ALH-562, ALH-561, ED 13.4, ED 14.6, DCF 070, ALH-490
(§5) BNL.CL2 cells (normal mouse embryonic liver cell line) were plated at ~3×10^5 cells/ml, grown for 16-24 hours, and treated with 0 μM and 100 μM Oltipraz, ALH-556 (121), and ALH-562 (123) for 24 hours. All three compounds were dissolved in DMSO and the final DMSO concentration present in all treatment conditions was 0.2%. BNL.CL2 cells were harvested by trypsinization and total RNA was isolated using the Trizol reagent (Gibco BRL) according to the manufacturer's procedures. 15 μg of RNA were run on a 1.1% agarose/6.6% formaldehyde gel and transferred overnight onto nitrocellulose membranes by capillary transfer using 20×SSC as transfer buffer. Subsequent to RNA transfer, the nitrocellulose membrane was baked at 80° C. for 2 hours. RNA was analyzed using a radiolabeled mouse ferritin H and human GST-α c-DNA. A human β-actin probe was used as an internal standard. The c-DNA probes were labeled with [α^32 P]dCTP by a random prime labeling. Hybridization of the c-DNA probes to the nitrocellulose membrane was performed at 68° C. for 60 minutes using the Quick-Hyb solution (Stratagene). Membranes were subjected to phosphoimager analysis after hybridization.

[5] = system: DT-diaphorase (NQO1) mRNA; experiment: NQO1 mRNA induction, Northern blot; assay type: cell-based, mouse; conditions: 80 μM, 24 hours
Description: as §2, §3, §4, §5

Ferritin H mRNA = Ferritin H mRNA induction, Northern blot; assay type: cell-based, mouse; conditions: 80 μM, 24 hours
Description: as §2, §3, §4, §5

NCp7 [6] = biological target: T2, NCp7 (Human immunodeficiency virus type 1 group M subtype B, UniProt P04591); conditions: DFT calculation (Maynard et al., 1998); cited from earlier work
T2 construct: HIV-1 nucleocapsid protein (NCp7)

[7] = system: glutathione-S-transferase (GST); conditions: cited from earlier work
[8] = system: fresh human monocyte/macrophage cultures; conditions: toxicity; cited from earlier work
HIV-1ADA = conditions: fresh human monocyte/macrophage cultures, cited from earlier work; for EC50: HIV-1ADA; for activity against replication of monocytotropic HIV-1ADA: in words
NCp7 [9] = biological target: T1, NCp7; conditions: 50 μM, reference compounds; cited from earlier work
NCp7 protein = conditions: cited from earlier work; for ejection of zinc from NCp7: in words; for TSQ NCp7 Assay: unit not given
HIV-1RF [10] = conditions: cited from earlier work; for EC50: CEM-SS cells, HIV-1RF, read-out: XTT assay EC50; for activity against HIV-1 in XTT-based cytoprotection assay: in words
CEM-SS cells [11] = conditions: toxicity, CEM-SS cells; read-out: XTT assay IC50; cited from earlier work
GST [12] = conditions: mice; cited from earlier work
GST [13] = conditions: rats; cited from earlier work
[14] = Human immunodeficiency virus 1, CEM-SS, read-out: Maximum cytoprotection
[15] = Human immunodeficiency virus 1, CEM-SS, Table 3, read-out: XTT Anti-HIV-1 Assay EC50

CCOC(=O)C1=C(c2ccccc2)S(=O)OC1 (centres unmarked) [(8) 53g]
IC50 (CEM-SS cells [1]): 213 µM | NCp7 Trp37 Assay, % Decrease RFU/30 min, without GSH (NCp7 [2]): 26 % Decrease RFU/30 min | Emax at 100 µM (HIV-1RF [3]; Human immunodeficiency virus 1, CEM-SS, @ 100 μM, read-out: Maximum cytoprotection): 12%

COC(=O)C1=C(C)S(=O)OC1 (centres unmarked) [(10) 53g]
IC50 (CEM-SS cells [1]): 5.3 µM | NCp7 Trp37 Assay, % Decrease RFU/30 min, without GSH (NCp7 [2]): 0.2 % Decrease RFU/30 min | Emax at 3.2 µM (HIV-1RF [3]; Human immunodeficiency virus 1, CEM-SS, @ 3.2 μM, read-out: Maximum cytoprotection): 32.6%

O=S1(=O)OCC=C1c1ccccc1 [ALH-490]
GST α induction (mRNA) ([4]; 24 hours): + | NQO1 induction (mRNA) [5]: + | Ferritin H induction (mRNA) (Ferritin H mRNA): +

CC1=C(C(=O)OC(C)C)CS[S+]1[O-] (centres unmarked) [53e]
IC50 (CEM-SS cells [1]): 18.4 µM | NCp7 Trp37 Assay, % Decrease RFU/30 min, without GSH (NCp7 [2]): 10.4 % Decrease RFU/30 min | Emax at 10 µM (HIV-1RF [3]; [14]): 40%

CC(=O)NS(=O)(=O)c1ccc(NC(=O)c2ccccc2SSc2ccccc2C(=O)Nc2ccc(S(=O)(=O)NC(C)=O)cc2)cc1 [3, R'=C(O)NH-phenyl-SO2 NHC(O)CH3]
ratio of electronegativity to hardness (.chi.^2 /.eta.) (NCp7 [6]): 0.3098

N[C@@H](CCC(=O)N[C@@H](CS)C(=O)NCC(=O)O)C(=O)O [glutathione]
pKa of the thiol ([7]; bound to GST): ~ 6.5 | pKa of the thiol ([7]; without enzyme binding): 9.0

COC(=O)C1=C(c2ccccc2)S(=O)OC1 (centres unmarked) [53h]
IC50 (CEM-SS cells [1]): 22.5 µM | NCp7 Trp37 Assay, % Decrease RFU/30 min, without GSH (NCp7 [2]): 0 % Decrease RFU/30 min | Emax at 10 µM (HIV-1RF [3]; [14]): 29%

CCOC(=O)C1=C(c2ccccc2)[S+]([O-])SC1 (centres unmarked) [53b]
IC50 (CEM-SS cells [1]): 45.7 µM | NCp7 Trp37 Assay, % Decrease RFU/30 min, without GSH (NCp7 [2]): 6.5 % Decrease RFU/30 min | Emax at 10 µM (HIV-1RF [3]; [14]): 31.6%

CC(=O)OCC1(COC(C)=O)CSS(=O)(=O)C1 [compound 7]
IC50 [8]: > 100 µM | EC50 (HIV-1ADA): 21 µM | activity against replication of monocytotropic HIV-1ADA (HIV-1ADA): active | NCp7 Trp37 Assay, % Decrease RFU/30 min, without GSH (NCp7 [9]): 18 % Decrease RFU/30 min | ejection of zinc from NCp7 (NCp7 protein): promoted ejection of zinc | TSQ NCp7 Assay (NCp7 protein): 18 | EC50 (HIV-1RF [10]): 9.8 µM | activity against HIV-1 in XTT-based cytoprotection assay (HIV-1RF [10]): active | IC50 (CEM-SS cells [11]): 30 µM

COC(=O)C1=C(c2ccccc2)[S+]([O-])SC1 (centres unmarked) [DCF 070]
GST α induction (mRNA) ([4]; 24 hours): + | NQO1 induction (mRNA) [5]: + | Ferritin H induction (mRNA) (Ferritin H mRNA): +

O=S1(=O)CC(CO)(CO)CS1 [compound 6]
activity against replication of monocytotropic HIV-1ADA (HIV-1ADA): active | ejection of zinc from NCp7 (NCp7 protein): promoted ejection of zinc | EC50 (HIV-1RF [10]): 34 µM | activity against HIV-1 in XTT-based cytoprotection assay (HIV-1RF [10]): active | IC50 (CEM-SS cells [11]): 200 µM

CC1=C(C2=CCCCC2)[S+]([O-])SC1 (centres unmarked) [ED 14.6]
GST α induction (mRNA) ([4]; 24 hours): + | NQO1 induction (mRNA) [5]: + | Ferritin H induction (mRNA) (Ferritin H mRNA): +

CC(C)(C)c1cc(O)ccc1O [t-BHQ]
GST α induction (mRNA) ([4]; 24 hours): + | NQO1 induction (mRNA) [5]: + | Ferritin H induction (mRNA) (Ferritin H mRNA): +

NC(=O)c1cccc(N=O)c1 [NOBA, 3-nitrosobenzamide]
ejection of zinc from NCp7 (NCp7 protein): reacted with the zinc fingers of NCp7 causing zinc ejection

COc1ccc(C2=C(C)COS2=O)cc1 (centres unmarked) [compound 121, 4-Methyl-5-(4-methoxy)phenyl-1,2-oxathiol-4-en-1-yl Oxide]
activation at 100 µM ([4]; Mus musculus, BNL CL.2, BNL.CL2 cells, 100 micromolar, 24 hours, read-out: increase in GST alpha mRNA levels): 300% | inducing activity (GST, NQO1 and Ferritin H) ([4]; in words): high levels of inducing activity

NS(=O)(=O)c1ccc(NC(=O)c2ccccc2SSc2ccccc2C(=O)Nc2ccc(S(N)(=O)=O)cc2)cc1 [3, R'=C(O)NH-phenyl-SO2 NH2]
ratio of electronegativity to hardness (.chi.^2 /.eta.) (NCp7 [6]): 0.2935

COC(=O)C1=C(c2ccccc2)[S+]([O-])SC1 (centres unmarked) [53a]
toxicity with GSH (CEM-SS cells [1]; 2 equivalents of GSH, in words): went down | IC50 (CEM-SS cells [1]): 18 µM | NCp7 Trp37 Assay, % Decrease RFU/30 min, with GSH (NCp7 [2]; 50 μM with GSH): 16.7 % Decrease RFU/30 min | NCp7 Trp37 Assay, % Decrease RFU/30 min, without GSH (NCp7 [2]): 13.5 % Decrease RFU/30 min | zinc ejecting ability with GSH (NCp7 [2]; GSH, in words): little effected by GSH | anti-HIV-1 activity with GSH (HIV-1RF [3]; 2 equivalents of GSH, in words): went down | EC50 (HIV-1RF [3]; Human immunodeficiency virus 1, CEM-SS, + GSH, 2 equivalents, read-out: XTT Anti-HIV-1 Assay EC50 with GSH): 17.3 µM | EC50 (HIV-1RF [3]; [15]): 6 µM | EC50 relative to the best dithiane (8, NSC 624151) (HIV-1RF [3]; in words): below that of the best dithiane | cytoprotection / anti-HIV-1 activity (HIV-1RF [3]; in words): possess anti-HIV-1 activity

COC(=O)C1=C(C2=CCCCC2)[S+]([O-])SC1 (centres unmarked) [ED 13.4]
GST α induction (mRNA) ([4]; 24 hours): + | NQO1 induction (mRNA) [5]: + | Ferritin H induction (mRNA) (Ferritin H mRNA): +

COC(=O)C1=C(C)[S+]([O-])SC1 (centres unmarked) [53d]
IC50 (CEM-SS cells [1]): 16.9 µM | NCp7 Trp37 Assay, % Decrease RFU/30 min, without GSH (NCp7 [2]): 14.3 % Decrease RFU/30 min | Emax at 10 µM (HIV-1RF [3]; [14]): 41.4%

CC1=C(c2ccccc2)S(=O)OC1 (centres unmarked) [53f]
IC50 (CEM-SS cells [1]): 16.9 µM | NCp7 Trp37 Assay, % Decrease RFU/30 min, without GSH (NCp7 [2]): 0 % Decrease RFU/30 min | EC50 (HIV-1RF [3]; [15]): 5.9 µM | EC50 relative to the best dithiane (8, NSC 624151) (HIV-1RF [3]; in words): below that of the best dithiane | cytoprotection / anti-HIV-1 activity (HIV-1RF [3]; in words): possess anti-HIV-1 activity

O=S1(=O)C[C@@H](O)[C@H](O)CS1 (relative stereo) [compound 9]
IC50 [8]: > 100 µM | EC50 (HIV-1ADA): 9.1 µM | activity against replication of monocytotropic HIV-1ADA (HIV-1ADA): active | ratio of electronegativity to hardness (.chi.^2 /.eta.) (NCp7 [6]): 0.2260 | ejection of zinc from NCp7 (NCp7 protein): promoted ejection of zinc | TSQ NCp7 Assay (NCp7 protein): 20 | EC50 (HIV-1RF [10]): 13 µM | activity against HIV-1 in XTT-based cytoprotection assay (HIV-1RF [10]): active | IC50 (CEM-SS cells [11]): 135 µM

C=CCS[S+]([O-])CC=C (centres unmarked) [allicin]
elevation of GST levels (GST [12]): elevate levels of GST | elevation of GST levels (GST [13]): elevate levels of GST

CC(C)OC(=O)C1=C(c2ccccc2)[S+]([O-])SC1 (centres unmarked) [53c]
IC50 (CEM-SS cells [1]): 15.2 µM | NCp7 Trp37 Assay, % Decrease RFU/30 min, without GSH (NCp7 [2]): 17.1 % Decrease RFU/30 min | Emax at 10 µM (HIV-1RF [3]; [14]): 43.3%
